Reference: patent US11884693B2, “1,3-acetonedicarboxylate-derived amphipathic compounds and uses thereof” (INDUSTRY-UNIVERSITY COOPERATION FOUNDATION HANYANG …, priority 2022, dated 2024)

What was measured:
[1] = Critical micelle concentration by fluorescence staining using diphenylhexatriene (DPH); type: physicochemical; details: aqueous solution
Method: A method of measuring the CMC is not particularly limited, but a method widely known in the art may be used, and for example, the CMC may be measured by a fluorescent staining method using diphenylhexatriene (DPH).
(§1) To check the characteristics of ACAs synthesized according to the synthesis methods of Examples 1 to 4, critical micelle concentrations (CMCs) of the ACAs and hydrodynamic diameters (DO of the formed micelles were measured.
(§2) Specifically, the critical micelle concentration (CMC) was measured by fluorescence staining using diphenylhexatriene (DPH), and the hydrodynamic diameters (Dh) of the micelles formed by each of the preparations (1.0% by weight) were measured by means of a dynamic light scattering (DLS) experiment. The measured results are shown in Table 1 in comparison to DDM and octyl glucoside neopentyl glycol (OGNG), two existing amphipathic molecule (detergent).

[2] = Micelle size by dynamic light scattering (DLS); type: physicochemical; details: micelles at 1.0% by weight
Method: A method of measuring the radius of the micelles is not particularly limited, but methods widely known in the related art may be used. For example, the radius of the micelles may be measured using a dynamic light scattering (DLS) experiment.
as §1, §2
In addition, the size distribution of the micelles formed by ACAs was examined by DLS. As a result, it was confirmed that the size of the micelles increased with an increasing length of the alkyl chain. This is because a compound having a cylindrical structure easy for self-assemblage is formed as more carbon is added to the hydrophobic end (FIG. 3).

[3] = Water solubility of the detergents; type: physicochemical
[4] = target: T1, melibiose permease of Salmonella typhimurium (MelBSt) (Salmonella typhimurium, UniProt P30878); assay: MelBSt extraction and thermal solubilization, SDS-PAGE and immunoblotting; type: biochemical; details: 1.5% (w/v) detergent, 90 min incubation at 55° C.
T1 construct: made in house; host or cells: E. coli DW2 (ΔmelB, ΔlacZY), plasmid pK95ΔΔHB/WT MelBSt/CH10
Method: Melibiose and other galactoside transporter MelB was produced by E. coli DW2 strain (ΔmelB and ΔlacZY) harboring pK95ΔΔHB/WT MelBSt/CH10 plasmid. The plasmid contains the gene encoding the wild-type melibiose permease of Salmonella typhimurium (MelBSt) with a 10-His tag at the C-terminus. Cell growth and membrane preparation were carried out as described in A. S. Ethayathulla, et al., Nat. Commun. 2014, 5, 3009. Protein assay was carried out with a Micro BCA kit (Thermo Scientific). The membrane samples containing MelBSt (10 mg/mL) in a solubilization buffer (20 mM sodium phosphate, pH 7.5, 200 mM NaCl, 10% glycerol and 20 mM melibiose) were mixed with each individual detergent (ACA-SCs, ACA-ACs and DDM) at 1.5% (w/v). Protein extractions were carried out at 0° C. for 90 min. The protein samples were further incubated at three different temperatures (45, 55, and 65° C.) for 90 min. After extraction and incubation, insoluble fractions were removed by ultracentrifugation at 355,590 g in a Beckman Optima™ MAX Ultracentrifuge using a TLA-100 rotor for 45 min at 4° C. […] membrane proteins without ultracentrifugation and detergent extracts after the ultracentrifugation with the same volume were loaded for analysis by SDS-15% PAGE, and immunoblotting with a HisProbe-HRP antibody (Thermo Scientific) was conducted for visualizing the MelBSt.

[5] = target: T2, mouse u-opioid receptor (MOR) (Mus musculus, UniProt P42866); assay: MOR long-term stability, [3H]-diprenorphine ligand binding; type: biochemical; details: 0.1 wt % detergent, 4° C., after 8 hours of incubation
T2 construct: made in house
Method: To perform a long-term stability analysis, MOR in 0.1% LMNG was purified. […] MOR in each detergent was incubated for five days at 4° C. and its ligand binding capacity was measured at regular intervals during the incubation. The ligand binding ability of the receptor was measured by adding ˜1 nM of radioactive [^3H]-diprenorphine (DPN). The [^3H]-DPN-containing mixture was immobilized to an anti-flag resin and the resin was collected using GF/B filter paper and scintillation fluid was added into the filter paper. Receptor-bound […] was measured with a scintillation counter (Beckman).

T1 sequence (P30878 whole entry): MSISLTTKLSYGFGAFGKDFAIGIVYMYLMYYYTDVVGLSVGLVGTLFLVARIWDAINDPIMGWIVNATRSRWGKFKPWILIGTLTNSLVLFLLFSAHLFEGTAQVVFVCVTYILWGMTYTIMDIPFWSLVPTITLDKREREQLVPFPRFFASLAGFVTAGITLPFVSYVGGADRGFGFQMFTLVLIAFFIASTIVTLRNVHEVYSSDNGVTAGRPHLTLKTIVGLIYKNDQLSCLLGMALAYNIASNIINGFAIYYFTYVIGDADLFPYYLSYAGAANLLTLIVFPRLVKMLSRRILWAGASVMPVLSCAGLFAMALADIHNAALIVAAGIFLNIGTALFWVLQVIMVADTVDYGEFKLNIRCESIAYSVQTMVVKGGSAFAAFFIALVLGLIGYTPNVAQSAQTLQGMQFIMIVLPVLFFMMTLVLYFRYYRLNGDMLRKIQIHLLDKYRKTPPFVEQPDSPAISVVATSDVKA
T2 sequence (P42866 whole entry): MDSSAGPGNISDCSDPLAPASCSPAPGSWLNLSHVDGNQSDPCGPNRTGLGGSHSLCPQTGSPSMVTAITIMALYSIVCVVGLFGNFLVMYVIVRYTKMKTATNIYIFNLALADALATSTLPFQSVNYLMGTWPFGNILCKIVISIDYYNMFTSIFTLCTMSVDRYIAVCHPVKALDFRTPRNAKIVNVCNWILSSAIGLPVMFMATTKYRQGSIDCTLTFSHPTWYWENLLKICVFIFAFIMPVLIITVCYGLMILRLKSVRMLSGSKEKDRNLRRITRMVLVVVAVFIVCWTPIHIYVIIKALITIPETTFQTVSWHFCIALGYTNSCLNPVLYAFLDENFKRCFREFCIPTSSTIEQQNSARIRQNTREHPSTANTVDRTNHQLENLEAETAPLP

SMILES	CMC [1]	CMC (% by weight) [1]	Rh (nm) [2]	Solubility (% by weight) [3]	MelBSt solubilization ability [4]	residual activity of MOR [5]
CCCCCCCCCCC(CCCCCCCCCC)(COC1OC(CO)C(O)C(O)C1O)C(CCOC1OC(CO)C(O)C(O)C1O)OC1OC(CO)C(O)C(O)C1O (mixture of isomers) [ACA-AC10]	~0.019 mM	~0.0017 % by weight	2.7 ± 0.2 nm	>10 % by weight		
CCCCCCCCCCCC(COC1OC(CO)C(O)C(O)C1O)C(OC1OC(CO)C(O)C(O)C1O)C(CCCCCCCCCCC)COC1OC(CO)C(O)C(O)C1O (mixture of isomers) [ACA-SC11]	~0.010 mM	~0.0009 % by weight	2.9 ± 0.3 nm	~10 % by weight	approximately 60%	
CCCCCCCCCCCCO[C@@H]1O[C@H](CO)[C@@H](O[C@H]2O[C@H](CO)[C@@H](O)[C@H](O)[C@H]2O)[C@H](O)[C@H]1O [DDM, n-dodecyl-β-D-maltopyranoside, reference compound]	0.17 mM	0.0087 % by weight	3.4 ± 0.3 nm	>10 % by weight		10%
CCCCCCCCCCCCC(CCCCCCCCCCCC)(COC1OC(CO)C(O)C(O)C1O)C(CCOC1OC(CO)C(O)C(O)C1O)OC1OC(CO)C(O)C(O)C1O (mixture of isomers) [ACA-AC12]	~0.012 mM	~0.0011 % by weight	8.9 ± 0.7 nm	~9 % by weight		
CCCCCCCCCCCC(CCCCCCCCCCC)(COC1OC(CO)C(O)C(O)C1O)C(CCOC1OC(CO)C(O)C(O)C1O)OC1OC(CO)C(O)C(O)C1O (mixture of isomers) [ACA-AC11]	~0.014 mM	~0.0013 % by weight	3.3 ± 0.2 nm	~10 % by weight	approximately 70%	

Further lines, with some results ahead:

CMC [1]	CMC (% by weight) [1]	Rh (nm) [2]	Solubility (% by weight) [3]	SMILES	MelBSt solubilization ability [4]	residual activity of MOR [5]
~0.007 mM	~0.0007 % by weight	8.3 ± 0.1 nm	~10 % by weight	CCCCCCCCCCCCC(COC1OC(CO)C(O)C(O)C1O)C(OC1OC(CO)C(O)C(O)C1O)C(CCCCCCCCCCCC)COC1OC(CO)C(O)C(O)C1O (mixture of isomers) [ACA-SC12]		
~0.005 mM	~0.0005 % by weight	13.9 ± 1.1 nm	~5 % by weight	CCCCCCCCCCCCCC(COC1OC(CO)C(O)C(O)C1O)C(OC1OC(CO)C(O)C(O)C1O)C(CCCCCCCCCCCCC)COC1OC(CO)C(O)C(O)C1O (mixture of isomers) [ACA-SC13]		
~1.0 mM	~0.058 % by weight	4.4 ± 0.3 nm	>10 % by weight	CCCCCCC(CCCCCC)(CO[C@@H]1O[C@H](CO)[C@@H](O)[C@H](O)[C@H]1O)CO[C@@H]1O[C@H](CO)[C@@H](O)[C@H](O)[C@H]1O [OGNG, octyl glucoside neopentyl glycol, reference compound]		
